Consider ten compounds from Sander's compilation of Henry's law constants (doi:10.1016/j.chroma.2004.12.027).

A short description of this data set: Henry solubility constant Hcp at 298.15 K (mol/(m3 Pa)). The note with it: reference: Diaz et al. (2005).

On to `COc1c(Cl)ccc(Cl)c1Cl` [1,2,4-trichloro-3-methoxybenzene], for which the “Henry solubility constant Hcp” value amounted to 0.011.

For the compound `COc1c(Br)ccc(Br)c1Br` [1,3,4-tribromo-2-methoxybenzene], the “Henry solubility constant Hcp” value was determined as 0.0052.

As for `COc1c(Br)cc(Br)cc1Br` [1,3,5-tribromo-2-methoxybenzene], the “Henry solubility constant Hcp” value was 0.019.

On to `COc1c(Cl)cc(Cl)cc1Cl` [1,3,5-trichloro-2-methoxybenzene], for which the “Henry solubility constant Hcp” value turned out to be 0.0044.

On to `COc1c(Br)ccc(Cl)c1Br` [2,6-dibromo-3-chloro-1-methoxybenzene], for which the “Henry solubility constant Hcp” value came to 0.0074.

Take `COc1c(Br)cc(Cl)cc1Br` [2,6-dibromo-4-chloro-1-methoxybenzene]: the “Henry solubility constant Hcp” value stood at 0.02.

In the case of `COc1c(Cl)cc(Cl)cc1Br` [2-bromo-4,6-dichloro-1-methoxybenzene], the “Henry solubility constant Hcp” value was 0.0082.

With `COc1c(Cl)ccc(Br)c1Cl` [3-bromo-2,6-dichloro-1-methoxybenzene], the “Henry solubility constant Hcp” value amounted to 0.011.

Regarding `COc1c(Cl)cc(Br)cc1Cl` [4-bromo-2,6-dichloro-1-methoxybenzene], the “Henry solubility constant Hcp” value came out at 0.012.

On to `COc1c(Cl)ccc(Cl)c1Br` [6-bromo-2,5-dichloro-1-methoxybenzene], for which the “Henry solubility constant Hcp” value came to 0.0077.
